{"source": "patent US8236927B2", "about": "“Stabilizer molecule-depleted albumin solution” (Albutec GmbH, priority 2005, dated 2012)", "origin": "cited, not measured here", "molecular_target": "T1, binding site II (diazepam binding site) of the albumin (Homo sapiens, UniProt P02768)", "T1 construct": "commercial albumin, stabilized with 5.2 mmole of octanoate and 5.2 mmol of N-acetyl tryptophanate per mmol albumin; purchased", "T1 sequence (P02768 25-609)": "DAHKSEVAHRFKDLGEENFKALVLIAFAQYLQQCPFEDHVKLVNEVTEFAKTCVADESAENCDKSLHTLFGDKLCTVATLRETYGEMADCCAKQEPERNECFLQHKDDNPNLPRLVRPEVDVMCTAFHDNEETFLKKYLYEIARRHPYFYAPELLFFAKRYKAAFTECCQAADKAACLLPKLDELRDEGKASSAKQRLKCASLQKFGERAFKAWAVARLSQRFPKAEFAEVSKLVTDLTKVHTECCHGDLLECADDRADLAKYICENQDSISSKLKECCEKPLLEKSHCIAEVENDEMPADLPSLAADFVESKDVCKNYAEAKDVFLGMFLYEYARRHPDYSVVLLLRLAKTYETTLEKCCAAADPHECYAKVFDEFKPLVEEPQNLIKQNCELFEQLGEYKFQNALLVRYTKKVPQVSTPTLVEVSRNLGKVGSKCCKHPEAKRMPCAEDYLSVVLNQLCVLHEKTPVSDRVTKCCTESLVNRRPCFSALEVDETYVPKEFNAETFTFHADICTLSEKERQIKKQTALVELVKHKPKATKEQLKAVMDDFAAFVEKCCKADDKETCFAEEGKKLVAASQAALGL", "conditions": "N-acetyl tryptophan added stepwise up to a molar ratio of 1:1; reduced from 100%"}
{"smiles": "CC(=O)N[C@@H](Cc1c[nH]c2ccccc12)C(=O)O", "note": "[N-acetyl tryptophan]", "values": [{"measurement": "binding capacity for dansylsarcosin of ligand-free albumin", "result": "about 60%"}]}
